The values that follow come from patent US10570179B2, “Substituted urea depsipeptide analogs as activators of the CLPP endopeptidase” (priority 2016, dated 2020).

≈ marks a conversion by molar mass, not a printed value. Read-outs that look alike come from different tables or passages of the source. Numbered stars: 1 amine (or outer) side, 2 acyl side, 3 side chain; on linkers, the order of the positions; unused ones are H or OH. Bridge positions count the residues as written; N and C are the ends. Square brackets hold non-standard residues; d marks the D form. Peptide text beside a SMILES is read from it. * marks the point of attachment. Piperazine(2S-CO,4-Me) = CN1CCN[C@H](C(=O)O)C1; Morpholine(3S-CO) = O=C(O)[C@@H]1COCCN1; Phe(3-Me) = Cc1cccc(C[C@H](N)C(=O)O)c1; NH(4-Cl-2-F-phenyl) = Fc1cc(Cl)ccc1N*; Pro(4R-Me) = C[C@H]1CN[C@H](C(=O)O)C1; X1 = O=C([C@@H]1CSCCN1[*:1])[*:2]; Hyp = O=C(O)[C@@H]1C[C@@H](O)CN1; NH(4-Et-phenyl) = CCc1ccc(N*)cc1; NH(4-Me-phenyl) = Cc1ccc(N*)cc1; aThr = C[C@H](O)[C@H](N)C(=O)O; CO = O=C([*:1])[*:2]; X2 = Fc1cc(N*)ccc1Cl

The subject of one data set is S. pneumoniae. Briefly: Minimal inhibitory concentration, microbroth dilution. As to conditions: Streptococcus pneumoniae, read-out: Minimal Inhibitory Concentrations (μM) S. pneumoniae. It counts as cell-based. In outline: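 MIC is recorded by eye as the lowest drug concentration that stops bacterial growth. Compound is serially diluted twofold in broth, starting at 200 μM final, and bacteria are added at roughly 10^5 cfu/mL. Incubation runs overnight at 37 °C under aerobic conditions, per CLSI guidance.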
(In general: Broth dilution looks for growth in wells or tubes with falling amounts of substance.)

The next data set can be described thus: Plasma pharmacokinetics. It counts as in vivo, male BALB/c mice. The settings on record: for Vd: read-out: Vss.
Setting [1] is: male, BALB/c, mouse, in vivo, iv.
The mark [2] stands for this setting: male, BALB/c, mouse, in vivo, iv, 10 mg/kg, Route i.v.

As for `Cc1cccc(C[C@H](NC(=O)Nc2ccc(Cl)cc2F)C(=O)N[C@H]2COC(=O)[C@@H]3C[C@@H](C)CN3C(=O)[C@H](C)NC(=O)[C@@H]3CN(C)CCN3C(=O)[C@@H]3CCCN3C2=O)c1` [Compound 13, (S)-2-(3-(4-CHLORO-2-FLUOROPHENYL)UREIDO)-3-(M-TOLYL)-N-((6AS,12S,15AS,17R,21S,23AS)-2,17,21-TRIMETHYL-6,11,15,20,23-PENTAOXOOCTADECAHYDRO-2H,6H,11H,15H-PYRAZINO[2,1-I]DIPYRROLO[2,1-C:2′,1′-L][1]OXA[4,7,10,13]TETRAAZACYCLOHEXADECIN-12-YL)PROPANAMIDE] ({NH(4-Cl-2-F-phenyl)-CO}-[Phe(3-Me)]SP[Piperazine(2S-CO,4-Me)]A[Pro(4R-Me)]; ester 2-C), in the data set on S. pneumoniae (MIC), the MIC came out at 0.156 µM (≈ 0.129 µg/mL).
Turning to `Cc1cccc(C[C@H](NC(=O)Nc2ccc(Cl)c(F)c2)C(=O)N[C@H]2COC(=O)[C@@H]3C[C@@H](C)CN3C(=O)[C@H](C)NC(=O)[C@@H]3CN(C)CCN3C(=O)[C@@H]3CCCN3C2=O)c1` [Compound 14, (S)-2-(3-(4-CHLORO-3-FLUOROPHENYL)UREIDO)-3-(M-TOLYL)-N-((6AS,12S,15AS,17R,21S,23AS)-2,17,21-TRIMETHYL-6,11,15,20,23-PENTAOXOOCTADECAHYDRO-2H,6H,11H,15H-PYRAZINO[2,1-I]DIPYRROLO[2,1-C:2′,1′-L][1]OXA[4,7,10,13]TETRAAZACYCLOHEXADECIN-12-YL)PROPANAMIDE] ({X2-CO}-[Phe(3-Me)]SP[Piperazine(2S-CO,4-Me)]A[Pro(4R-Me)]; ester 2-C), in the data set on S. pneumoniae (MIC), the MIC stood at 0.625 µM (≈ 0.516 µg/mL).
As for `Cc1ccc(NC(=O)N[C@@H](Cc2cccc(C)c2)C(=O)N[C@H]2COC(=O)[C@@H]3C[C@@H](C)CN3C(=O)[C@H](C)NC(=O)[C@@H]3CN(C)CCN3C(=O)[C@@H]3CCCN3C2=O)cc1` [Compound 15, (S)-3-(M-TOLYL)-2-(3-(P-TOLYL)UREIDO)-N-((6AS,12S,15AS,17R,21S,23AS)-2,17,21-TRIMETHYL-6,11,15,20,23-PENTAOXOOCTADECAHYDRO-2H,6H,11H,15H-PYRAZINO[2,1-I]DIPYRROLO[2,1-C:2′,1′-L][1]OXA[4,7,10,13]TETRAAZACYCLOHEXADECIN-12-YL)PROPANAMIDE] ({NH(4-Me-phenyl)-CO}-[Phe(3-Me)]SP[Piperazine(2S-CO,4-Me)]A[Pro(4R-Me)]; ester 2-C), the MIC in the data set with S. pneumoniae is 0.313 µM (≈ 0.246 µg/mL).
In the case of `Cc1cccc(C[C@H](NC(=O)Nc2ccc3c(c2)OCO3)C(=O)N[C@H]2COC(=O)[C@@H]3C[C@@H](C)CN3C(=O)[C@H](C)NC(=O)[C@@H]3CCCCN3C(=O)[C@@H]3CCCN3C2=O)c1` [Compound 23, (S)-2-(3-(BENZO[D][1,3]DIOXOL-5-YL)UREIDO)-N-((2R,6S,8AS,14AS,20S,23AS)-2,6-DIMETHYL-5,8,14,19,23-PENTAOXOOCTADECAHYDRO-1H,5H,14H,19H-PYRIDO[2,1-I]DIPYRROLO[2,1-C:2′,1′-L][1]OXA[4,7,10,13]TETRAAZACYCLOHEXADECIN-20-YL)-3-(M-TOLYL)PROPANAMIDE], in “Plasma pharmacokinetics” (setting [1]), the AUC(0-inf) amounted to 12000 ng·h/mL, the AUC(0-t) came to 11700 ng·h/mL, the “C^0” value is recorded as 25009.24 ng/mL and the clearance turned out to be 13.8 mL/min/kg. This compound had a half-life in the data set “Plasma pharmacokinetics” (setting [1]) of 4.57 h. Besides, the Vd in the data set “Plasma pharmacokinetics” (setting [2]) was 2.83 L/kg.
`CCc1ccc(NC(=O)N[C@@H](Cc2cccc(C)c2)C(=O)N[C@@H]2C(=O)N3C[C@H](O)C[C@H]3C(=O)N3CCOC[C@H]3C(=O)N[C@@H](C)C(=O)N3C[C@H](C)C[C@H]3C(=O)O[C@H]2C)cc1` [Compound 24, (S)-2-(3-(4-ETHYLPHENYL)UREIDO)-N-((6AS,8R,12S,13S,15AS,17R,21S,23AS)-8-HYDROXY-13,17,21-TRIMETHYL-6,11,15,20,23-PENTAOXOOCTADECAHYDRO-6H,11H,15H-[1,4]OXAZINO[3,4-I]DIPYRROLO[2,1-C:2′,1′-L][1]OXA[4,7,10,13]TETRAAZACYCLOHEXADECIN-12-YL)-3-(M-TOLYL)PROPANAMIDE] ({NH(4-Et-phenyl)-CO}-[Phe(3-Me)][aThr][Hyp][Morpholine(3S-CO)]A[Pro(4R-Me)]; ester 2-C): in the data set “Plasma pharmacokinetics” (setting [1]), the AUC(0-inf) turned out to be 3870 ng·h/mL, the AUC(0-t) turned out to be 3850 ng·h/mL, the “C^0” value turned out to be 27083.47 ng/mL and the clearance turned out to be 43 mL/min/kg. Further, in the data set “Plasma pharmacokinetics” (setting [1]), the half-life was 0.34 h. For the same compound, the Vd in “Plasma pharmacokinetics” (setting [2]) worked out at 0.51 L/kg.
In the case of `Cc1ccc(NC(=O)N[C@@H](Cc2cccc(C)c2)C(=O)N[C@@H]2C(=O)N3C[C@H](O)C[C@H]3C(=O)N3CCN(C)C[C@H]3C(=O)N[C@@H](C)C(=O)N3C[C@H](C)C[C@H]3C(=O)O[C@H]2C)cc1` [Compound 30, (S)—N-((6AS,8R,12S,13S,15AS,17R,21S,23AS)-8-HYDROXY-2,13,17,21-TETRAMETHYL-6,11,15,20,23-PENTAOXOOCTADECAHYDRO-2H,6H,11H,15H-PYRAZINO[2,1-I]DIPYRROLO[2,1-C:2′,1′-L][1]OXA[4,7,10,13]TETRAAZACYCLOHEXADECIN-12-YL)-3-(M-TOLYL)-2-(3-(P-TOLYL)UREIDO)PROPANAMIDE] ({NH(4-Me-phenyl)-CO}-[Phe(3-Me)][aThr][Hyp][Piperazine(2S-CO,4-Me)]A[Pro(4R-Me)]; ester 2-C), the “C^0” value in “Plasma pharmacokinetics” (Route i.v.) is reported as 12355.62 ng/mL. Further, the AUC(0-inf) in the data set “Plasma pharmacokinetics” (male, BALB/c, mouse, in vivo, iv, 10 mg/kg, Route i.v., read-out: AUCinf) turned out to be 2650 ng·h/mL. For the same compound, the AUC(0-t) in the data set “Plasma pharmacokinetics” (male, BALB/c, mouse, in vivo, iv, 10 mg/kg, Route i.v., read-out: AUClast) is 2620 ng·h/mL. Further, the clearance in the data set “Plasma pharmacokinetics” (male, BALB/c, mouse, in vivo, iv, 10 mg/kg, Route i.v., read-out: CL) was 63 mL/min/kg. For the same compound, in “Plasma pharmacokinetics” (male, BALB/c, mouse, in vivo, iv, 10 mg/kg, Route i.v., read-out: T1/2 (converted)), the half-life was 2.08 h. Further, in the data set “Plasma pharmacokinetics” (setting [2]), the Vd came out at 1.74 L/kg.
As to `Cc1cccc(C[C@H](NC(=O)Nc2ccc(Cl)cc2F)C(=O)N[C@@H]2C(=O)N3C[C@H](O)C[C@H]3C(=O)N3CCN(C)C[C@H]3C(=O)N[C@@H](C)C(=O)N3C[C@H](C)C[C@H]3C(=O)O[C@H]2C)c1` [Compound 31, (S)-2-(3-(4-CHLORO-2-FLUOROPHENYL)UREIDO)-N-((6AS,8R,12S,13S,15AS,17R,21S,23AS)-8-HYDROXY-2,13,17,21-TETRAMETHYL-6,11,15,20,23-PENTAOXOOCTADECAHYDRO-2H,6H,11H,15H-PYRAZINO[2,1-I]DIPYRROLO[2,1-C:2′,1′-L][1]OXA[4,7,10,13]TETRAAZACYCLOHEXADECIN-12-YL)-3-(M-TOLYL)PROPANAMIDE] ({NH(4-Cl-2-F-phenyl)-CO}-[Phe(3-Me)][aThr][Hyp][Piperazine(2S-CO,4-Me)]A[Pro(4R-Me)]; ester 2-C), in the data set “Plasma pharmacokinetics” (setting [1]), the AUC(0-inf) amounted to 5260 ng·h/mL, the AUC(0-t) came to 5250 ng·h/mL, the “C^0” value was 30582.19 ng/mL and the clearance was 31.7 mL/min/kg. The half-life in the data set “Plasma pharmacokinetics” (setting [1]) was 1.55 h. Moreover, in “Plasma pharmacokinetics” (setting [2]), the Vd amounted to 0.63 L/kg.
Turning to `Cc1cccc(C[C@H](NC(=O)Nc2ccc(Cl)cc2F)C(=O)N[C@@H]2C(=O)N3CCC[C@H]3C(=O)N3CCSC[C@H]3C(=O)N[C@@H](C)C(=O)N3C[C@H](C)C[C@H]3C(=O)O[C@H]2C)c1` [Compound 38, (S)-2-(3-(4-CHLORO-2-FLUOROPHENYL)UREIDO)-3-(M-TOLYL)-N-((6AS,12S,13S,15AS,17R,21S,23AR)-13,17,21-TRIMETHYL-6,11,15,20,23-PENTAOXOOCTADECAHYDRO-6H,11H,15H-DIPYRROLO[2,1-C:2′,1′-L][1,4]THIAZINO[3,4-I][1]OXA[4,7,10,13]TETRAAZACYCLOHEXADECIN-12-YL)PROPANAMIDE] ({NH(4-Cl-2-F-phenyl)-CO}-[Phe(3-Me)][aThr]P[X1]A[Pro(4R-Me)]; ester 2-C), in “Plasma pharmacokinetics” (setting [1]), the AUC(0-inf) was determined as 13300 ng·h/mL, the AUC(0-t) was found to be 13200 ng·h/mL, the “C^0” value came out at 16999.46 ng/mL and the clearance is 12.6 mL/min/kg. This compound also showed a half-life in the data set “Plasma pharmacokinetics” (setting [1]) of 3.11 h. Moreover, in “Plasma pharmacokinetics” (setting [2]), the Vd was determined as 1.77 L/kg.
